Consider 1 compound from publication PMC8584989 (International Journal of Molecular Sciences, 2021).

For data set [1], the system named is ABC transporters and CYPs. Put plainly: Gene expression (induction) studies by qRT-PCR. Format: cell-based, human. Particulars: 1.5 µM tepotinib; DI-related models, NSCLC cell lines and primary NSCLC cultures. As to the method:
Gene expression studies were performed employing quantitative real-time reverse transcription PCR (qRT-PCR) technique as described in our previous papers.
The Caco-2, LS174T, A549, NCI-H1299 cells or primary lung cancer cells were seeded on 12-well plates with the densities of 50 × 10^4, 100 × 10^4, 24 × 10^4, 18 × 10^4 or 15 × 10^4 cells/well, respectively, and incubated for 24 h. […] Samples were collected at 24 h and 48 h intervals after drug treatment using TRI Reagent and then, mRNA isolation was performed. Agarose gel electrophoresis was used for the control of RNA quality and integrity and the RNA yield was monitored via NanoDrop ND-1000 spectrophotometer (American Laboratory Trading, East Lyme, CT, USA). RNA (1000 ng) was transcribed to cDNA using gb Reverse Transcription Kit. ABCB1, ABCG2 and ABCC1 mRNA expressions were detected with Master Mix and TaqMan-based qRT-PCR systems using QuantStudio 6 (Life Technologies, Carlsbad, CA, USA). […]
In the case of the HepaFH3 hepatocytes, first, viability was analyzed with CellTiter-Glo 2.0 Viability Assay; the luminescence was measured using a microplate reader (FLUOstar Omega, BMG Labtech, Ortenberg, Germany). […] RNA integrity and quality was checked by agarose gel electrophoresis and the concentration assessed by NanoDrop. […]
For orientation: In qPCR the cycle at which signal appears reflects the starting amount.

For data set [2] the following is noted: recommended dosing of 500 mg daily; read-out: steady state Cmax; cited from earlier work.
Data set [3] is described as follows: XTT proliferation / drug combination assay. Particulars: human.
The subject of data set [4] is HL60-ABCC1 cells. The experiment in a line: XTT proliferation assay (comparative viability). Particulars: single drug, 48 h. Format: cell-based. As to the method:
(§1) These colorimetric assays were used in various studies presented in this paper (prior induction studies, MDR reversal experiments and comparative viability assays) and were performed as reported previously. […] In MTT experiments, cells were seeded on a 96-well culture plate at densities (in number of cells/well) of 1.3 × 10^4 for MDCKII-par, MDCKII-ABCB1 and MDCKII-ABCG2; 1.2 × 10^4 for A431-par, A431-ABCB1, A431-ABCG2 and A431-ABCC1; 1.2 × 10^4 for NCI-H1299; 1.0 × 10^4 for A459; 2.0 × 10^4 for Caco-2; 5.0 × 10^4 for LS174T; and 1.0 × 10^4 for primary NSCLC explants. On the other hand, for XTT cells were seeded with densities 2.0 × 10^4 for HL60-par, HL60-ABCB1, HL60-ABCG2 and HL60-ABCC1 cells/well on 96-well plates. […] Following 48 h incubation with drugs, Opti-MEM solutions of MTT or XTT (1 mg/mL) with phenazine methosulfate solution (7.50 μg/mL; only for XTT) was added and the cells were incubated for 1 h with the exception of HL60s that were incubated for 5 h.

Data set [5] concerns the target T1, CYP2C9 (Homo sapiens, UniProt P11712).
T1 construct: purchased Thermo Fisher Scientific
The experiment in a line: Vivid CYP450 Screening Kit, recombinant CYP2C9. The data set is classed as in vitro ADME. Particulars: recombinant enzyme; read-out: CYP2C9 inhibition IC50. As to the method:
(§2) CYP inhibitory assay was performed using Vivid CYP450 screening kit as described previously. The kits consist of microsomal fraction containing human CYP isoforms, human CYP reductase and in several cases cytochrome b5. Experiments were performed following the manufacturer’s protocol on black 96-well plates using kinetic mode. […] Then, the master mix (CYP isoenzyme with an NADPH regeneration system in buffer) was added in each well and plate was pre-incubated for 10 min. The reaction was started with the mixture of NADP^+ and Vivid substrate and the fluorescence of samples was measured in 1 min interval for 60 min using an Infinite M200 Pro microplate reader (Tecan, Männedorf, Switzerland). Data from linear phase (15 min) were used for data evaluation.

In data set [6] the test system is HL60-par cells. Put plainly: XTT proliferation / drug combination assay. The data set is classed as cell-based. Particulars: 48 h, read-out: HL60-par IC50. As to the method: as §1
(§3) Based on the computed CI values, the effects of drug combinations were classified as synergistic (CI < 0.9), additive (0.9 < CI < 1.1) or antagonistic (CI > 1.1).

In data set [7] the test system is A431-par cells. Put plainly: MTT proliferation / drug combination assay. The following applies: 48 h, read-out: A431-par IC50. The data set is classed as cell-based. As to the method: as §1, §3
A short description of data set [8]: XTT proliferation / drug combination assay. The following applies: human. The source holds these as a separate data set.
Data set [9] deals with T2, CYP2C19 (Homo sapiens, UniProt P33261).
T2 construct: purchased Thermo Fisher Scientific
T2 sequence (P33261 whole entry): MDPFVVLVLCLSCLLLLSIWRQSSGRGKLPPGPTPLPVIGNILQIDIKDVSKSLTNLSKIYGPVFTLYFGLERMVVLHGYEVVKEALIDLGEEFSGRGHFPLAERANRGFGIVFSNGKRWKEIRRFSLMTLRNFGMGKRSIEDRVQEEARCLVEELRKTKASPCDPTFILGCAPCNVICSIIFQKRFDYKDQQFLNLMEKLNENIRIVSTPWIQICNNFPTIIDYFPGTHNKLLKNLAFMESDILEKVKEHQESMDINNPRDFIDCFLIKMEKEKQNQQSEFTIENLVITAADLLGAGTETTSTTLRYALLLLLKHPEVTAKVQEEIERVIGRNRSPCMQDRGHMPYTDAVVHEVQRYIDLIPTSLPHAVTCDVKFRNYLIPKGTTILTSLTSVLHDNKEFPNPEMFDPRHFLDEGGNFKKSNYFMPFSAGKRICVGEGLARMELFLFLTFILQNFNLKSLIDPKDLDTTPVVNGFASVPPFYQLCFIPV
Put plainly: Vivid CYP450 Screening Kit, recombinant CYP2C19. Format: in vitro ADME. Particulars: recombinant enzyme; read-out: CYP2C19 inhibition IC50. As to the method: as §2

T1 sequence (P11712 whole entry): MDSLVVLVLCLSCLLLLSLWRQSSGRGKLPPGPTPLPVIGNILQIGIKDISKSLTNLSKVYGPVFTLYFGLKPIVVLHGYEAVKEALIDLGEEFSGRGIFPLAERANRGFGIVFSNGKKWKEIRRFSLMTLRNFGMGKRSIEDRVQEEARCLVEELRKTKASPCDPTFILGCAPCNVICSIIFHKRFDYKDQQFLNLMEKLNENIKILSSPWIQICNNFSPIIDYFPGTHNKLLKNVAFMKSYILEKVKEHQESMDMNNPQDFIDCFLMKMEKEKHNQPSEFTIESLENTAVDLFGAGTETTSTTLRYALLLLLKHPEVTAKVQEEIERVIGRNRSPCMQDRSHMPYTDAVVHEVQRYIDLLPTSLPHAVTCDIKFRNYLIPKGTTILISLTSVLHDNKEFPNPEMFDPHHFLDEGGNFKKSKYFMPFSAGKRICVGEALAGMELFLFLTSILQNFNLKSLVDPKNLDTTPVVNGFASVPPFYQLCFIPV

As to `CN1CCC(COc2cnc(-c3cccc(Cn4nc(-c5cccc(C#N)c5)ccc4=O)c3)nc2)CC1` [tepotinib, Tepotinib], the “Effect on expression of clinically relevant ABC transporters and CYPs” value in [1] was “did not influence expression”. Moreover, in data set [2], the Cmax was 2620 nM. In addition, the 50% inhibitory concentration (IC50) at 48 h in data set [3] is 19.6 µM; in [8], 19.4 µM. Besides, the IC50 amounted to 20 µM in [4]; 1.7 µM in data set [5]; 19.5 µM in [6]; 15.7 µM in data set [7]; 16.9 µM in [9].

Broadly, the Cmax is the maximum level reached in the sampled fluid or tissue. For orientation: IC50 means the concentration needed to halve the response being measured.
